Measurements published in paper PMC7311426, “An amphipathic peptide with antibiotic activity against multidrug-resistant Gram-negative bacteria” (Nature Communications, 2020).
Values after ≈ are worked out from the molar mass of the structure shown. Residues, ends and D or L forms follow the SMILES beside them.

Legend:
in vivo = conditions: for level at 4 h / level at 8 h / level at 0.5 h / level at 1 h / level at 3 h / level at 12 h: Cross species PK, concentration (Fig 6 source data)
Method: The studies were performed at Fidelta Ltd, Croatia (mice), under review by the institutional ethics committee (CARE-Zg), and Covance Laboratories UK and Muenster Germany (cynomolgus monkey and minipig) in accordance with the requirements of the Animals (Scientific Procedures) Act 1989 and a maintained local ethical review. All studies were contracted by Adenium Biotech ApS. Mice were housed in polysulfone cages with an acclimatization period of 7 days prior to experiments with air temperature maintained at 22 °C with 55% humidity and light–dark cycles of 12 h light. Cynomolgus monkeys of age range 4–7 years were selected, tested for health, acclimatized for 2 weeks, and housed in single-animal climate controlled stainless-steel cages with a minimum of 8 air changes per hour with air temperature at 19–25 °C and relative humidity 40–70%, and light–dark cycles of 12 h light. Minipigs of age range 4–6 months were selected, tested for health, acclimatized for 2 weeks, and housed in single-animal pens with 15–20 air changes per hour with air temperature at 22–26 °C with light–dark cycles of 12 h light.
Mouse, monkey, and minipig i.v. 2-h infusion: AA139 formulated in Ringer’s acetate was administered intravenously to CD1 mice, cynomolgus monkeys (Macaca fascicularis) and Göttingen A/S minipigs (Ellegaard Göttingen, Denmark) by continuous infusion over 2 h (minipig under anesthesia). Individual dose volumes were based on individual body weight. Blood samples were collected at 0.5, 1, 2, 3, 4, 8, 10, and 12 h after the start of the infusion (n = 6 mice, male and female combined; n = 2 monkeys, one male and one female; n = 2 minipigs, one male and one female). Bioanalytical analysis was performed by SPE followed by LC–MS/MS. The method was validated for an AA139 concentration range of 43.4–21,700 ng mL^−1. Pharmacokinetic parameters were calculated by standard non-compartmental analysis (NCA) using Phoenix WinNonlin version 6.2. The studies were conducted in compliance with Good Laboratory Practice (GLP) regulations.

[1] = test system: human primary hepatocytes; assay: Cell viability, human primary hepatocytes (Eurofins Panlabs); assay type: cell-based
Method: Cell viability of human primary hepatocytes against AA139 was assessed by fluorometric readout of Alamar Blue following 24 h incubation at 37 °C of human plateable cryopreserved hepatocytes and AA139 as an 8-point dose response, 0.1–300 μM, as described by Nociari et al.[41]. Cell viability was calculated as a percentage of the control cells and plotted versus concentration using Prism 8 Software. The IC50 value was determined by non-linear regression analysis of the concentration–response curve using the Hill equation. Assay was performed by Eurofins Pharma Discovery Services (Panlabs), St Charles, MO, USA, study number 100049990. Source data are provided as a source data file.

[2] = test system: E. coli (AID#172 & ATCC 25922); conditions: E. coli ATCC 25922; quality control range printed beside agar dilution MIC; cited from earlier work
Source text: Supplement 41467_2020_16950_MOESM9_ESM.xlsx, sheet "Supp table 9" | column: Agar (Noble) Dilution MIC Results for AA139 and Comparators

[3] = Göttingen, minipig, in vivo, iv, minipig 2h i.v. infusion, replicate 1
[4] = Göttingen, minipig, in vivo, iv, minipig 2h i.v. infusion, replicate 2
[5] = both, Göttingen, minipig, in vivo, iv, 10 mg kg-1
[6] = both, cynomolgus monkey, in vivo, iv, 10 mg kg-1
[7] = cynomolgus monkey, in vivo, iv, monkey 2h i.v. infusion, replicate 1
[8] = cynomolgus monkey, in vivo, iv, monkey 2h i.v. infusion, replicate 2
[9] = cynomolgus monkey, in vivo, iv, monkey 2h i.v. infusion, replicate 3
[10] = cynomolgus monkey, in vivo, iv, monkey 2h i.v. infusion, replicate 4

CC(C)[C@@H]1NC(=O)[C@H](Cc2ccc(O)cc2)NC(=O)[C@H](Cc2c[nH]c3ccccc23)NC(=O)[C@@H](NC(=O)[C@H](Cc2ccccc2)NC(=O)CN)CSSC[C@@H](C(=O)N[C@@H](CC(N)=O)C(=O)O)NC(=O)[C@H](CCCNC(=N)N)NC(=O)[C@H](CCCNC(=N)N)NC(=O)[C@H](Cc2ccc(O)cc2)NC(=O)[C@@H]2CSSC[C@H](NC1=O)C(=O)N[C@@H](C)C(=O)N[C@@H](CCCNC(=N)N)C(=O)N[C@@H](CCCNC(=N)N)C(=O)N[C@@H](CC(N)=O)C(=O)NCC(=O)N[C@@H](C)C(=O)N[C@@H](CCCNC(=N)N)C(=O)N[C@@H](C(C)C)C(=O)N2 [AA139] (HELM PEPTIDE1{G.F.C.W.Y.V.C.A.R.R.N.G.A.R.V.C.Y.R.R.C.N}$PEPTIDE1,PEPTIDE1,3:R3-20:R3|PEPTIDE1,PEPTIDE1,7:R3-16:R3$$$V2.0)
level at 4 h (in vivo; [3]): 2850 ng/mL | level at 4 h (in vivo; [4]): 3110 ng/mL | level at 8 h (in vivo; [3]): 1510 ng/mL | level at 8 h (in vivo; [4]): 1240 ng/mL | Vd (in vivo; [5]): 1.2 L/kg | half-life (in vivo; [5]): 186 min | level at 0.5 h (in vivo; both, Göttingen, minipig, in vivo, iv, minipig 2h i.v. infusion, time 0.5 h, replicate 1): 4830 ng/mL | level at 1 h (in vivo; both, Göttingen, minipig, in vivo, iv, minipig 2h i.v. infusion, time 1 h, replicate 2): 6780 ng/mL | level at 3 h (in vivo; both, Göttingen, minipig, in vivo, iv, minipig 2h i.v. infusion, replicate 1): 4100 ng/mL | level at 3 h (in vivo; both, Göttingen, minipig, in vivo, iv, minipig 2h i.v. infusion, replicate 2): 5080 ng/mL | AUC(0-inf) (in vivo; [6]): 40800 ng·h/mL | Vd (in vivo; [6]): 0.87 L/kg | half-life (in vivo; [6]): 144 min | level at 0.5 h (in vivo; both, cynomolgus monkey, in vivo, iv, monkey 2h i.v. infusion, time 0.5 h, replicate 2): 6540 ng/mL | level at 0.5 h (in vivo; both, cynomolgus monkey, in vivo, iv, monkey 2h i.v. infusion, time 0.5 h, replicate 3): 7630 ng/mL | level at 0.5 h (in vivo; both, cynomolgus monkey, in vivo, iv, monkey 2h i.v. infusion, time 0.5 h, replicate 4): 13500 ng/mL | level at 1 h (in vivo; both, cynomolgus monkey, in vivo, iv, monkey 2h i.v. infusion, time 1 h, replicate 1): 9000 ng/mL | level at 1 h (in vivo; both, cynomolgus monkey, in vivo, iv, monkey 2h i.v. infusion, time 1 h, replicate 2): 9340 ng/mL | level at 1 h (in vivo; both, cynomolgus monkey, in vivo, iv, monkey 2h i.v. infusion, time 1 h, replicate 3): 8480 ng/mL | level at 3 h (in vivo; both, cynomolgus monkey, in vivo, iv, monkey 2h i.v. infusion, replicate 1): 5390 ng/mL | level at 3 h (in vivo; both, cynomolgus monkey, in vivo, iv, monkey 2h i.v. infusion, replicate 2): 5440 ng/mL | level at 3 h (in vivo; both, cynomolgus monkey, in vivo, iv, monkey 2h i.v. infusion, replicate 3): 4440 ng/mL | level at 3 h (in vivo; both, cynomolgus monkey, in vivo, iv, monkey 2h i.v. infusion, replicate 4): 6120 ng/mL | level at 4 h (in vivo; [7]): 3590 ng/mL | level at 4 h (in vivo; [8]): 3930 ng/mL | level at 4 h (in vivo; [9]): 2240 ng/mL | level at 4 h (in vivo; [10]): 2830 ng/mL | level at 8 h (in vivo; [7]): 1270 ng/mL | level at 8 h (in vivo; [8]): 1290 ng/mL | level at 8 h (in vivo; [9]): 2720 ng/mL | level at 8 h (in vivo; [10]): 2460 ng/mL | level at 12 h (in vivo; [9]): 860 ng/mL | level at 12 h (in vivo; [10]): 802 ng/mL | Cross species PK, concentration (Fig 6 source data) (in vivo; minipig 2h i.v. infusion, time 0.5 h, replicate 2): 6298 | Cross species PK, concentration (Fig 6 source data) (in vivo; minipig 2h i.v. infusion, time 1 h, replicate 1): 4846 | Cross species PK, concentration (Fig 6 source data) (in vivo; minipig 2h i.v. infusion, time 2 h, replicate 1): 7751 | Cross species PK, concentration (Fig 6 source data) (in vivo; minipig 2h i.v. infusion, time 2 h, replicate 2): 9612 | Cross species PK, concentration (Fig 6 source data) (in vivo; monkey 2h i.v. infusion, time 0.5 h, replicate 1): 6780 | Cross species PK, concentration (Fig 6 source data) (in vivo; monkey 2h i.v. infusion, time 1 h, replicate 4): 15900 | Cross species PK, concentration (Fig 6 source data) (in vivo; monkey 2h i.v. infusion, time 2 h, replicate 1): 8610 | Cross species PK, concentration (Fig 6 source data) (in vivo; monkey 2h i.v. infusion, time 2 h, replicate 2): 11100 | Cross species PK, concentration (Fig 6 source data) (in vivo; monkey 2h i.v. infusion, time 2 h, replicate 3): 21300 | Cross species PK, concentration (Fig 6 source data) (in vivo; monkey 2h i.v. infusion, time 2 h, replicate 4): 6780 | IC50, human primary hepatocytes ([1]; 24 h): 330 µg/mL (≈ 129 µM) | Fold higher hepatocyte IC50 over antibacterial activity against E. coli ([1]; IC50 / MIC): 2400 fold | Fold higher hepatocyte IC50 over antibacterial activity against K. pneumoniae ([1]; IC50 / MIC): 300 fold

C[C@H]1COc2c(N3CCN(C)CC3)c(F)cc3c(=O)c(C(=O)O)cn1c23 [LEV, levofloxacin, reference compound]
MIC QC range [2]: 8 to 60 ng/mL
